Here are results for 25 molecules from US8148391B2 (Cephalon, Inc., priority 2006, dated 2012).

pIC50: −log10 of the molar value. Some results are limits rather than exact numbers.

Assay [1] deals with T1, c-Met (cytoplasmic domain) (Homo sapiens, UniProt P08581).
T1 construct: 10 ng/mL c-Met (cytoplasmic domain, Invitrogen Corporation #PV3143); purchased Invitrogen Corporation PV3143
In words: c-Met Kinase Assay (same methods as for ALK, with modifications). The assay is classed as biochemical. Particulars: c-Met kinase inhibition, 1 μM ATP (Km level); read-out: cMet Activity. In outline: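 Plates were coated with phospholipase C-γ substrate (10 μg/mL) in TBS, and the reaction was started with 10 ng/mL c-Met cytoplasmic domain and run 15 min at 37 °C. Phosphoproduct was detected with Eu-N1-labelled PT66 antibody. IC50 came from a variable-slope sigmoidal fit of percent inhibition vs log concentration.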

Assay [2] deals with T2, baculovirus-expressed ALK (Homo sapiens, UniProt Q9UM73).
T2 construct: host or cells: baculovirus expression system
T2 sequence (Q9UM73 19-1620): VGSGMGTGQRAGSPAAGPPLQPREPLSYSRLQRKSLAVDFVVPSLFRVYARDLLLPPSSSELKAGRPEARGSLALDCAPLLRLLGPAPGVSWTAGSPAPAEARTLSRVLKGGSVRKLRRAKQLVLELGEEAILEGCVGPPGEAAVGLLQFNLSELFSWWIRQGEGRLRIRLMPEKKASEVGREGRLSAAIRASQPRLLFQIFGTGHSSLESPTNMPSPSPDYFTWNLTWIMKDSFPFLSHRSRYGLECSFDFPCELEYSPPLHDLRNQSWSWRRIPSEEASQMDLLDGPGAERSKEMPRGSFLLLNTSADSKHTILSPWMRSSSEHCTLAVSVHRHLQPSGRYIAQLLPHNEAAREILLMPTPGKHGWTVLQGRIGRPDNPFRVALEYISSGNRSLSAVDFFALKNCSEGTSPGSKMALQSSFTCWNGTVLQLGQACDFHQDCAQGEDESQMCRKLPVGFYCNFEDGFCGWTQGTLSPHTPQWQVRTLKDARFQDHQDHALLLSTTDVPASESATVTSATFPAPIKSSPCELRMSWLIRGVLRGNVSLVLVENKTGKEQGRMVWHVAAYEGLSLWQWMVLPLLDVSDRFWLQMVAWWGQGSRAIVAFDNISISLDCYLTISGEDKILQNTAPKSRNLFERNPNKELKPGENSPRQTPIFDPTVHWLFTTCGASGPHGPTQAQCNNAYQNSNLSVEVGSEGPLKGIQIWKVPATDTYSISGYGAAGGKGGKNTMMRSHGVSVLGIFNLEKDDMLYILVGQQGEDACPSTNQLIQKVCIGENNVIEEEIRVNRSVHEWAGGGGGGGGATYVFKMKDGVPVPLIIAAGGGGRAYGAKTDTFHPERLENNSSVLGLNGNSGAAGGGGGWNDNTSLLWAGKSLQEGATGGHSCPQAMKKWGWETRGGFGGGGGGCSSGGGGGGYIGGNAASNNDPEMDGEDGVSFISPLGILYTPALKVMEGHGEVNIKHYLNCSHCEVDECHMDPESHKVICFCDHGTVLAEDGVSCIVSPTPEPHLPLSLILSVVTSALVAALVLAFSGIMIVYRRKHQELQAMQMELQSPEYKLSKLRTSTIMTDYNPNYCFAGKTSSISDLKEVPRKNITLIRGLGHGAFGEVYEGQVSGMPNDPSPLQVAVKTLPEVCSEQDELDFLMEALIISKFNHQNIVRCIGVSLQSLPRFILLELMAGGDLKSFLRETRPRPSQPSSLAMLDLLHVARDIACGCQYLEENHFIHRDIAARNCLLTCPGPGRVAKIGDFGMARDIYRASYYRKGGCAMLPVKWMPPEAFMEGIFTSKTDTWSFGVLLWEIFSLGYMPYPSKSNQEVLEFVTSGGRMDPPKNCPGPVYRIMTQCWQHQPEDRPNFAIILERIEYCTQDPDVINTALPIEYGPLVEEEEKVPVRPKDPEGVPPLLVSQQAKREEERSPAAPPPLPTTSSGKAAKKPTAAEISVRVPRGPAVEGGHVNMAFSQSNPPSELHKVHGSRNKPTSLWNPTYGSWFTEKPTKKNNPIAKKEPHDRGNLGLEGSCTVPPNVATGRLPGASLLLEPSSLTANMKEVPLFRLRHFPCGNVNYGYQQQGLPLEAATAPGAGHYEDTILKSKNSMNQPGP
The assay can be described thus: ALK Kinase Assay (ELISA-type, time-resolved fluorescence). The assay is classed as biochemical. Particulars: ALK kinase inhibition, 1 μM ATP (Km level); read-out: ALK Activity. In outline:
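Plates coated with phospholipase C-γ substrate (10 μg/mL in TBS); reaction started with 30 ng/ml ALK and run 15 min at 37° C. Phosphorylated substrate detected with Eu-N1-labeled PT66 antibody. IC50 from sigmoidal variable-slope fit of percent inhibition vs log concentration.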
A general note: In an ELISA, binding on a coated surface is turned into a signal by an enzyme label.

T1 sequence (P08581 956-1390 limits assumed): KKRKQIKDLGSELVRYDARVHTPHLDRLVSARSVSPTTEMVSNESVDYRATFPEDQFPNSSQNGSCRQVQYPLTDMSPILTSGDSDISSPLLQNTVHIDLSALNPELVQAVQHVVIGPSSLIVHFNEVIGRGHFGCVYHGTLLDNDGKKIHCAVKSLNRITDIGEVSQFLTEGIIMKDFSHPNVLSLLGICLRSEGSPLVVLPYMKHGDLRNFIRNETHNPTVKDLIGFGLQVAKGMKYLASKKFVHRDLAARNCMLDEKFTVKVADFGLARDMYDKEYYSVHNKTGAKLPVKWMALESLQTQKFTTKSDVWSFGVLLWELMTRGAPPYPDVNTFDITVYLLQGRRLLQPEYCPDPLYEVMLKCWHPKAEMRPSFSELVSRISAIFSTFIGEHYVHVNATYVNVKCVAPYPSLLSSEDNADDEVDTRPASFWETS

On to `CC1(C)CCCNc2ccc(Nc3ncc(Cl)c(N[C@@H]4CCCC[C@H]4NS(C)(=O)=O)n3)cc21` [Example 392, N-{(1R,2R)-2-[5-Chloro-2-(5,5-dimethyl-2,3,4,5-tetrahydro-1H-benzo[b]azepin-7-ylamino)-pyrimidin-4-ylamino]-cyclohexyl}-methanesulfonamide], for which the pIC50 in assay [1] was 5.00 to 6.00; in assay [2] it was over 7.00.
The matching figures for `CC1(C)CCC(=O)Nc2ccc(Nc3ncc(Cl)c(NC4C5C=CC(C5)C4C(N)=O)n3)cc21` (stereo not drawn) [Example 394, (2-exo,3-exo)-3-[5-Chloro-2-(5,5-dimethyl-2-oxo-2,3,4,5-tetrahydro-1H-benzo[b]azepin-7-ylamino)-pyrimidin-4-ylamino]-bicyclo[2.2.1]hept-5-ene-2-carboxylic acid amide]: 6.00 to 7.00 and over 7.00.
For `CC(=O)N[C@@H]1CCCC[C@H]1Nc1nc(Nc2ccc3c(c2)C(C)(C)CCC(=O)N3)ncc1Cl` [Example 395, N-{(1R,2R)-2-[5-Chloro-2-(5,5-dimethyl-2-oxo-2,3,4,5-tetrahydro-1H-benzo[b]azepin-7-ylamino)-pyrimidin-4-ylamino]-cyclohexyl}-acetamide], the values for the pIC50 in assay [1] and in assay [2] were 6.00 to 7.00 and over 7.00, respectively.
The matching figures for `Cn1ccnc1-c1ccccc1Nc1nc(Nc2ccc3c(c2)C(C)(C)CCC(=O)N3)ncc1Cl` [Example 397, 7-{5-Chloro-4-[2-(1-methyl-1H-imidazol-2-yl)-phenylamino]-pyrimidin-2-ylamino}-5,5-dimethyl-1,3,4,5-tetrahydro-benzo[b]azepin-2-one]: 6.00 to 7.00 and over 7.00.
The matching figures for `CC1(C)CCC(=O)Nc2ccc(Nc3ncc(Cl)c(Nc4ccccc4-n4cccn4)n3)cc21` [Example 398, 7-[5-Chloro-4-(2-pyrazol-1-yl-phenylamino)-pyrimidin-2-ylamino]-5,5-dimethyl-1,3,4,5-tetrahydro-benzo[b]azepin-2-one]: under 5.00 and over 7.00.
The corresponding values for `CNC(=O)c1cccc(F)c1Nc1nc(Nc2ccc3c(c2)C(=O)NCCC3)ncc1Cl` [Example 400, 2-[5-Chloro-2-(1-oxo-2,3,4,5-tetrahydro-1H-benzo[c]azepin-8-ylamino)-pyrimidin-4-ylamino]-3-fluoro-N-methyl-benzamide] are 6.00 to 7.00 and 6.00 to 7.00.
For the molecule `CNC(=O)c1cccc(C)c1Nc1nc(Nc2ccc3c(c2)C(=O)NCCC3)ncc1Cl` [Example 401, 2-[5-Chloro-2-(1-oxo-2,3,4,5-tetrahydro-1H-benzo[c]azepin-8-ylamino)-pyrimidin-4-ylamino]-3,N-dimethyl-benzamide], the pIC50 is 6.00 to 7.00 in assay [1] and under 5.00 in assay [2].
The matching figures for `CNC(=O)c1ccccc1Nc1nc(Nc2ccc3c(c2)NCCNC3=O)ncc1Cl` [Example 411, 2-[5-Chloro-2-(5-oxo-2,3,4,5-tetrahydro-1H-benzo[e][1,4]diazepin-8-ylamino)-pyrimidin-4-ylamino]-N-methylbenzamide]: over 7.00 and over 7.00.
The corresponding values for `CNC(=O)c1ccccc1Nc1nc(Nc2ccc3c(c2)NCCN(C)C3=O)ncc1Cl` [Example 412, 2-[5-Chloro-2-(4-methyl-5-oxo-2,3,4,5-tetrahydro-1H-benzo[e][1,4]diazepin-8-ylamino)-pyrimidin-4-ylamino]-N-methylbenzamide] are over 7.00 and over 7.00.
Take `CNC(=O)c1ccccc1Nc1nc(Nc2ccc3c(c2)N(C)CCN(C)C3=O)ncc1Cl` [Example 413, 2-[5-Chloro-2-(1,4-dimethyl-5-oxo-2,3,4,5-tetrahydro-1H-benzo[e][1,4]diazepin-8-ylamino)-pyrimidin-4-ylamino]-N-methylbenzamide]: the pIC50 in assay [1] and in assay [2] was over 7.00 each time.
For `CNC(=O)c1ccccc1Nc1nc(Nc2ccc3c(c2)N(C)CCNC3=O)ncc1Cl` [Example 414, 2-[5-Chloro-2-(1-methyl-5-oxo-2,3,4,5-tetrahydro-1H-benzo[e][1,4]diazepin-8-ylamino)-pyrimidin-4-ylamino]-N-methylbenzamide], the pIC50 in assay [1] and in assay [2] was over 7.00 throughout.
Regarding `CCN(CC)CCN1CCNC(=O)c2ccc(Nc3ncc(Cl)c(Nc4ccccc4C(=O)NC)n3)cc21` [Example 415, 2-{5-Chloro-2-[1-(2-diethylamino-ethyl)-5-oxo-2,3,4,5-tetrahydro-1H-benzo[e][1,4]diazepin-8-ylamino]-pyrimidin-4-ylamino}-N-methylbenzamide], the pIC50 in assay [1] is 6.00 to 7.00; in assay [2] it was over 7.00.
On to `CNC(=O)c1ccccc1Nc1nc(Nc2ccc3c(c2)N(C)CCNC3)ncc1Cl` [Example 417, 2-[5-Chloro-2-(1-methyl-2,3,4,5-tetrahydro-1H-benzo[e][1,4]diazepin-8-ylamino)-pyrimidin-4-ylamino]-N-methylbenzamide], for which the pIC50 in assay [1] and in assay [2] was over 7.00 each time.
With `CCN1CCN(CC)c2cc(Nc3ncc(Cl)c(Nc4ccccc4C(=O)NC)n3)ccc2C1=O` [Example 418, 2-[5-Chloro-2-(1,4-diethyl-5-oxo-2,3,4,5-tetrahydro-1H-benzo[e][1,4]diazepin-8-ylamino)-pyrimidin-4-ylamino]-N-methylbenzamide], the pIC50 in assay [1] and in assay [2] was over 7.00 throughout.
Turning to `CCN1CCN(CC)c2cc(Nc3ncc(Cl)c(Nc4ccccc4C(=O)NC)n3)ccc2C1` [Example 419, 2-[5-Chloro-2-(1,4-diethyl-2,3,4,5-tetrahydro-1H-benzo[e][1,4]diazepin-8-ylamino)-pyrimidin-4-ylamino]-N-methylbenzamide], the pIC50 in assay [1] and in assay [2] was over 7.00 each time.
For the molecule `CNC(=O)c1ccccc1Nc1nc(Nc2ccc3c(c2)CNCCN3C)ncc1Cl` [Example 420, 2-[5-Chloro-2-(1-methyl-2,3,4,5-tetrahydro-1H-benzo[e][1,4]diazepin-7-ylamino)-pyrimidin-4-ylamino]-N-methylbenzamide], the pIC50 in assay [1] and in assay [2] was over 7.00 each time.
On to `CN1CCNCc2cc(Nc3ncc(Cl)c(Nc4ccccc4NS(C)(=O)=O)n3)ccc21` [Example 421, N-{2-[5-Chloro-2-(1-methyl-2,3,4,5-tetrahydro-1H-benzo[e][1,4]diazepin-7-ylamino)-pyrimidin-4-ylamino]-phenyl}-methanesulfonamide], for which the pIC50 was 6.00 to 7.00 in assay [1] and over 7.00 in assay [2].
Turning to `CN1CCNCc2cc(Nc3ncc(Cl)c(N[C@@H]4CCCC[C@H]4NS(C)(=O)=O)n3)ccc21` [Example 422, N-{(1R,2R)-2-[5-Chloro-2-(1-methyl-2,3,4,5-tetrahydro-1H-benzo[e][1,4]diazepin-7-ylamino)-pyrimidin-4-ylamino]-cyclohexyl}-methanesulfonamide], the pIC50 in assay [1] is 5.00 to 6.00; in assay [2], over 7.00.
The matching figures for `CCN1CCN(CC)c2cc(Nc3ncc(Cl)c(Nc4ccccc4NS(C)(=O)=O)n3)ccc2C1=O` [Example 423, N-{2-[5-Chloro-2-(1,4-diethyl-5-oxo-2,3,4,5-tetrahydro-1H-benzo[e][1,4]diazepin-8-ylamino)-pyrimidin-4-ylamino]-phenyl}-methanesulfonamide]: 6.00 to 7.00 and over 7.00.
The corresponding values for `CCN1CCN(CC)c2cc(Nc3ncc(Cl)c(N[C@@H]4CCCC[C@H]4NS(C)(=O)=O)n3)ccc2C1=O` [Example 424, N-{(1R,2R)-2-[5-Chloro-2-(1,4-diethyl-5-oxo-2,3,4,5-tetrahydro-1H-benzo[e][1,4]diazepin-8-ylamino)-pyrimidin-4-ylamino]-cyclohexyl}-methanesulfonamide] are 5.00 to 6.00 and over 7.00.
The matching figures for `CCN1CCN(CC)c2cc(Nc3ncc(Cl)c(Nc4ccccc4NS(C)(=O)=O)n3)ccc2C1` [Example 425, N-{2-[5-Chloro-2-(1,4-diethyl-2,3,4,5-tetrahydro-1H-benzo[e][1,4]diazepin-8-ylamino)-pyrimidin-4-ylamino]-phenyl}-methanesulfonamide]: 6.00 to 7.00 and over 7.00.
Turning to `CCN1CCN(CC)c2cc(Nc3ncc(Cl)c(N[C@@H]4CCCC[C@H]4NS(C)(=O)=O)n3)ccc2C1` [Example 426, N-{(1R,2R)-2-[5-Chloro-2-(1,4-diethyl-2,3,4,5-tetrahydro-1H-benzo[e][1,4]diazepin-8-ylamino)-pyrimidin-4-ylamino]-cyclohexyl}-methanesulfonamide], the values for the pIC50 in assay [1] and in assay [2] were 6.00 to 7.00 and over 7.00, respectively.
The corresponding values for `CCN1CCN(CC)c2cc(Nc3ncc(Cl)c(N[C@@H]4CCCC[C@H]4NS(C)(=O)=O)n3)c(Cl)cc2C1` [Example 427, N-{(1R,2R)-2-[5-Chloro-2-(7-chloro-1,4-diethyl-2,3,4,5-tetrahydro-1H-benzo[e][1,4]diazepin-8-ylamino)-pyrimidin-4-ylamino]-cyclohexyl}-methanesulfonamide] are under 5.00 and over 7.00.
As to `CNC(=O)c1ccccc1Nc1nc(Nc2ccc3c(c2)C(=O)NCCN3C)ncc1Cl` [Example 428, 2-[5-Chloro-2-(1-methyl-5-oxo-2,3,4,5-tetrahydro-1H-benzo[e][1,4]diazepin-7-ylamino)-pyrimidin-4-ylamino]-N-methylbenzamide], the pIC50 in assay [1] and in assay [2] was over 7.00 in each case.
As to `COCCN1CCN(C)c2ccc(Nc3ncc(Cl)c(Nc4ccccc4NS(C)(=O)=O)n3)cc2C1` [Example 429, N-(2-{5-Chloro-2-[4-(2-methoxy-ethyl)-1-methyl-2,3,4,5-tetrahydro-1H-benzo[e][1,4]diazepin-7-ylamino]-pyrimidin-4-ylamino}-phenyl)-methanesulfonamide], the pIC50 was 6.00 to 7.00 in assay [1] and over 7.00 in assay [2].
